In assay [1] the test system is COLO 205 cells. In words: MTS cytotoxicity test with COLO 205 cells. It is filed as cell-based, human. The conditions noted are these: three days with compound. In a few lines:
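COLO 205 human colon carcinoma cells, 1000/well, exposed for three days at 37 °C to nine 2-fold dilutions, top final concentration typically 5 μM. MTS formazan absorbance normalised to a time-0 plate; IC50 taken as concentration halfway between untreated maximum and high-drug minimum.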
In general terms: Tetrazolium assays rely on reduction of a dye to a coloured formazan, in cell work by metabolically active cells.

In assay [2] the test system is H157 Human Non-Small Cell Lung Carcinoma. Conditions: for growth of xenografts: H157 NSCLC.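 For all read-outs here: subcutaneous flank tumors in female athymic nu/nu mice, staged near 100 mm^3 on day 0, tumor volume from caliper measurements, vehicle-dosed controls on the same schedule.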
Assay [3] has as its system KB-8-5 cells. In words: MTS cytotoxicity test with KB-8-5 cells (moderate P-glycoprotein). The conditions noted are these: for Ratio 8.5/KB: IC50 on KB 8.5 cells/IC50 on KB cells; for IC50: KB 8.5 cells, mean of 2 experiments. The format is cell-based, human. From the text: (§1) Human cancer cell lines, unless otherwise noted, are obtained from the American Type Culture Collection (Rockville, Md.). The following drug-sensitive parental cell lines, and their derived drug-resistant counterparts, are obtained from the originators as listed: (a) S1 (parental line from a subclone of human colon carcinoma line LS174T) and derived S1-M1-3.2 (herein called S1-M1) which expresses the MXR drug transporter protein, are provided by Dr. L. Greenberger, Wyeth Research (Rabindran, S. K., He, H., Singh, M., Brown, E., Collins, K. I., Annable, T., and Greenberger, L. M. Reversal of a novel multidrug resistance mechanism in human colon carcinoma cells by fumitremorgin C. Cancer Res., 58: 5850-5858, 1998); (b) parental HL-60 human promyelocytic leukemia line and derived HL-60/ADR, which expresses the MRP1 drug transporter protein, are provided by Dr. M. Center, University of Kansas (McGrath, T., and Center, M. S. Adriamycin resistance in HL60 cells in the absence of detectable P-glycoprotein. Biochem. Biophys. […] J. Biol. Chem., 261: 7762-7770, 1986) via Dr. L. Greenberger, Wyeth Research.
(§2) The assay, which is sold in kit form by Promega (Madison, Wis.; CellTiter 96 AQueous Non-Radioactive Cell Proliferation Assay), is based on the conversion by viable cells, but not by dead cells, of the tetrazolium salt, MTS (3-(4,5-dimethylthiazol-2-yl)-5-(3-carboxymethoxyphenyl)-2-(4-sulphophenyl)-2H-tetrazolium, inner salt), into a water-soluble colored formazan which is detected by spectrophotometry. Compounds are tested at nine concentrations, in order to determine IC50 values. For the test procedure, cells are harvested by trypsinization, washed, counted and distributed to wells of 96-well flat-bottom microtiter plates at 1000 cells per well in 200 μL of medium. In addition, one row of wells on a separate plate receives cells as above (“time 0” plate). All plates are incubated at 37° in humidified 5% CO2 in air for about 24 hr.
(§3) On day 2, compounds for test are diluted and added to wells. Compounds are dissolved in DMSO at 10 mg/mL. For each compound, nine serial 2-fold dilutions are prepared in DMSO. Ten μL of each dilution in DMSO are transferred to 100 μL of medium, mixed well, and then 5 μL of this dilution are transferred in quadruplicate to wells containing cells. […] Plates are returned to the incubator for three days. At the time of drug addition to the experimental plates, the MTS assay is run on the “time 0” plate. This produces the “time 0 MTS value” which is related to the number of viable cells per well at the time of drug addition.
(§4) After three days of culture with test compounds (day 5 overall), the MTS assay is done on all wells of the experimental plates. The absorbance values of the quadruplicate sample wells are averaged and divided by the average of the “time 0” values. […] The nine values for each compound are plotted against concentration, and the concentration that produces a relative color yield half way between the maximum and minimum is taken as the IC50 value.

Assay [4] has as its system HL-60/ADR cells. In words: MTS cytotoxicity test with HL-60/ADR cells (MRP1). It is filed as cell-based, human. The conditions noted are these: for IC50: HL-60/ADR cells, mean of 2 experiments; for Ratio: IC50 on HL-60/ADR cells/IC50 on HL-60 cells.
Source text: as §1, §2, §3, §4
(§5) HL-60/ADR cells overexpress the multidrug resistance protein MRP1 which mediates resistance to some chemotherapeutics (Gottesman, M. M., Fojo, T., and Bates, S. E. Multidrug resistance in cancer: role of ATP-dependent transporters. Nature Rev. Cancer, 2: 48-58, 2002). The IC50 values of representative examples of this invention, as well as reference compounds, on HL-60/ADR are compared to values on the sensitive parental HL-60 line.

For assay [5], the system named is S1-M1 cells. In words: MTS cytotoxicity test with S1-M1 cells (MXR). It is filed as cell-based, human. Conditions: for Ratio: IC50 on S1-M1 cells/IC50 on S1 cells; for IC50: S1-M1 cells, mean of 2 experiments.
Source text: as §1, §2, §3, §4
(§6) S1-M1 cells overexpress the MXR transporter which mediates resistance to some chemotherapeutics (Gottesman, M. M., Fojo, T., and Bates, S. E. Miltidrug resistance in cancer: role of ATP-dependent transporters. Nature Rev. Cancer, 2: 48-58, 2002). The IC50 values of representative examples of this invention, as well as reference compounds, on S1-M1 are compared to values on the sensitive parental S1 line.

Assay [6] has as its system HL-60 cells. Description: MTS cytotoxicity test with HL-60 cells. The format is cell-based, human. The conditions noted are these: mean of 2 experiments.
Source text: as §1, §2, §3, §4, §5

Assay [7] has as its system S1 cells. In words: MTS cytotoxicity test with S1 cells. The format is cell-based, human. The conditions noted are these: mean of 2 experiments.
Source text: as §1, §2, §3, §4, §6

In assay [8] the test system is KB cells. In words: MTS cytotoxicity test with KB cells. The format is cell-based, human. The conditions noted are these: mean of 2 experiments.
Source text: as §1, §2, §3, §4

Setting [9] is: 1 mg/kg PO, schedule days 1, 7, H157.
The mark [10] stands for this setting: 5 mg/kg PO, schedule days 1, 7, H157.
[11] abbreviates: 5 mg/kg IV, schedule day 0, H157 (Table 11).
Setting [12] is: 5 mg/kg PO, schedule day 0, H157.
Where [13] appears, read: 1.5 mg/kg IV, schedule days 0, 7, H157.
The mark [14] stands for this setting: 3 mg/kg IV, schedule days 0, 7, H157.

Structures are written as SMILES. Where two headings read alike, the source gives them in different places. Marks after values point to notes of the source that are not given here.

One may read the IC50 as the midpoint of a concentration-inhibition curve.

Turning to `CNCCCOc1cc(F)c(-c2c(Cl)nc(-c3cnccn3)nc2N[C@@H](C)C(F)(F)F)c(F)c1.Cl` [Example 24a, 6-Chloro-5-{2,6-difluoro-4-[3-(methylamino)propoxy]phenyl}-2-pyrazin-2-yl-N-[(1S)-2,2,2-trifluoro-1-methylethyl]pyrimidin-4-amine hygrogen chloride], the IC50 amounted to 8.9 nM in assay [1]; 24 nM in assay [3]; 6.3 nM in assay [4]; 53 nM in assay [5]; 6.6 nM in assay [6]; 20 nM in assay [7]. The compound also came in with an IC50 in assay [8] of 7 nM. The figures for the “T/C on day 0” value in assay [2] (setting [9]) and in assay [2] (setting [10]) were 0.96 and 0.98, respectively. In addition, the “T/C on day 4” value is recorded as 0.73* in assay [2] (setting [9]) and 0.64** in assay [2] (setting [10]). Also, the “T/C on day 7” value in assay [2] (setting [9]) is listed as 0.70; in assay [2] (setting [10]), 0.51**. The “T/C on day 10” value in assay [2] (setting [9]) is 0.58; in assay [2] (setting [10]), 0.16**. Also, the figures for the “T/C on day 13” value in assay [2] (setting [9]) and in assay [2] (setting [10]) were 0.50* and 0.12**, respectively. In addition, the growth of xenografts result in assay [2] (orally on days 1 and 7 with 5 or 1 mg/kg/dose) was “inhibits the growth”. Moreover, the “Ratio 8.5/KB” value in assay [3] is listed as 3.5. For the same compound, the Ratio in assay [4] was 1.0; in assay [5], 2.7.

As for `CNCCCOc1cc(F)c(-c2c(Cl)nc(-c3ccccn3)nc2N[C@@H](C)C(F)(F)F)c(F)c1.Cl` [Example 29a, 6-Chloro-5-{2,6-difluoro-4-[3-(methylamino)propoxy]phenyl}-2-pyridin-2-yl-N-[(S)-2,2,2-trifluoro-1-methylethyl]pyrimidin-4-amine hydrogen chloride], the IC50 in assay [1] (Homo sapiens, 72 h) was found to be 5.2 nM; in assay [3] (Homo sapiens), 21 nM; in assay [4] (Homo sapiens, HL60/ADR) it was 6.8 nM; in assay [5] (Homo sapiens) it was 21 nM; in assay [6] (Homo sapiens) it was 6.9 nM; in assay [7] (Homo sapiens) it was 7.9 nM. The compound further gave an IC50 in assay [8] (Homo sapiens) of 6.2 nM. The entries for the “T/C on day 0” value in assay [2] (setting [11]) and in assay [2] (setting [12]) were 1.03 and 1.02, respectively. In addition, the figures for the “T/C on day 2” value in assay [2] (setting [11]) and in assay [2] (setting [12]) were 0.34** and 0.43**, respectively. Besides, the “T/C on day 7” value is on record as “Toxic” in assay [2] (setting [11]) and 0.37** in assay [2] (setting [12]). The “T/C on day 9” value in assay [2] (setting [12]) is 0.33**. In assay [2] (setting [12]), the “T/C on day 14” value is 0.25**. Moreover, the growth of xenografts entry in assay [2] (orally on day 0 with 5 mg/kg) is “inhibits the growth”. Moreover, the “Ratio 8.5/KB” value in assay [3] was found to be 3.4. Besides, the Ratio in assay [4] was 1.0; in assay [5], 2.7.

For the compound `CNCCCOc1cc(F)c(-c2c(Cl)nc(-n3cccn3)nc2N[C@@H](C)C(F)(F)F)c(F)c1.Cl` [Example 32a, 6-Chloro-5-{2,6-difluoro-4-[3-(methylamino)propoxy]phenyl}-2-(1H-pyrazol-1-yl)-N-[(1S)-2,2,2-trifluoro-1-methylethyl)pyrimidin-4-amine Hydrogen Chloride], the IC50 in assay [1] (Homo sapiens, 72 h) came out at 2.4 nM; in assay [3] (Homo sapiens), 32 nM; in assay [4] (Homo sapiens, HL60/ADR), 2.2 nM; in assay [5] (Homo sapiens), 8.7 nM; in assay [6] (Homo sapiens), 2.6 nM; in assay [7] (Homo sapiens) it was 9.9 nM. This compound gave an IC50 in assay [8] (Homo sapiens) of 2.4 nM. Also, the “T/C on day 0” value in assay [2] (setting [13]) and in assay [2] (setting [14]) was 0.95 in each case. Moreover, the “T/C on day 4” value in assay [2] (setting [13]) is listed as 0.89; in assay [2] (setting [14]), 0.72. Also, the “T/C on day 7” value in assay [2] (setting [13]) is 0.63*; in assay [2] (setting [14]), 0.46**. For the same compound, the entries for the “T/C on day 13” value in assay [2] (setting [13]) and in assay [2] (setting [14]) were 0.48* and 0.10**, respectively. In addition, the growth of xenografts result in assay [2] (intravenously on days 0 and 7 at 3 or 1.5 mg/kg/dose) is listed as “inhibits the growth”. In assay [3], the “Ratio 8.5/KB” value was determined as 14. Moreover, the Ratio in assay [4] came to 0.8; in assay [5], 0.9.

Regarding `CC(=O)O[C@H]1C(=O)[C@@]2(C)[C@H]([C@H](OC(=O)c3ccccc3)[C@]3(O)C[C@H](OC(=O)[C@H](O)[C@@H](NC(=O)c4ccccc4)c4ccccc4)C(C)=C1C3(C)C)[C@]1(OC(C)=O)CO[C@@H]1C[C@@H]2O` [Paclitaxel, reference compound], the IC50 in assay [1] (Homo sapiens, 72 h) was determined as 3.3 nM; in assay [4] (Homo sapiens, HL60/ADR), 3.5 nM; in assay [5] (Homo sapiens) it was 2.7 nM; in assay [6] (Homo sapiens), 3 nM; in assay [7] (Homo sapiens), 4.2 nM.

Regarding `CC[C@]1(O)C[C@H]2CN(CCc3c([nH]c4ccccc34)[C@@](C(=O)OC)(c3cc4c(cc3OC)N(C=O)[C@H]3[C@@](O)(C(=O)OC)[C@H](OC(C)=O)[C@]5(CC)C=CCN6CC[C@]43[C@@H]65)C2)C1` [Vincristine, reference compound], the IC50 in assay [1] (Homo sapiens, 72 h) was 2.6 nM; in assay [3] (Homo sapiens), 58 nM; in assay [4] (Homo sapiens, HL60/ADR), 24 nM; in assay [5] (Homo sapiens) it was 7.9 nM; in assay [6] (Homo sapiens), 2.5 nM; in assay [7] (Homo sapiens), 14 nM. It took 2.2 nM to reach half-maximal inhibition in assay [8] (Homo sapiens) (IC50). Further, in assay [3], the “Ratio 8.5/KB” value worked out at 26. Besides, the values for the Ratio in assay [4] and in assay [5] were 9.6 and 0.6, respectively.

For the origin of these results see patent US7524849B2, “5-arylpyrimidines as anticancer agents” (Wyeth Holdings Corporation, priority 2003, dated 2009).
